In patent US20230234942A1, “COMPOUNDS FOR TREATING HUNTINGTON'S DISEASE” (PTC Therapeutics, Inc., priority 2020, published 2023):

Tested on: Endogenous Huntingtin Protein
Experiment: Endogenous Huntingtin Protein Assay (ELISA-based MSD electrochemiluminescence)
Type: cell-based
Conditions: Table 2; MSD plates coated with MW1 (expanded polyglutamine) or MAB2166 capture antibody; "inactive" = result above the detection limit of the assay
Protocol: Compounds of Formula (I) were tested using the Meso Scale Discovery (MSD) Assay provided in International Application No. PCT/US2016/066042, filed on Dec. 11, 2016 and claiming priority to U.S. Provisional Application 62/265,652 filed on Dec. 10, 2015, the entire contents of which are incorporated herein by reference.
The Endogenous Huntingtin Protein assay used in Biological Example 1 was developed using the ELISA-based MSD electrochemiluminescence assay platform.
Meso Scale Discovery (MSD) 96-well or 384-well plates were coated overnight at 4° C. with MW1 (expanded polyglutamine) or MAB2166 monoclonal antibody (for capture) at a concentration of 1 μg/mL in PBS (30 μL per well). Plates were then washed three times with 300 μL wash buffer (0.05% Tween-20 in PBS) and blocked (100 μL blocking buffer; 5% BSA in PBS) for 4-5 hours at room temperature with rotational shaking and then washed three times with wash buffer.
Samples (25 μL) were transferred to the antibody-coated MSD plate and incubated overnight at 4° C. After removal of the lysates, the plate was washed three times with wash buffer, and 25 μL of #56565 (Cell signaling; rabbit monoclonal) secondary antibody (diluted to 0.25 μg/mL in 0.05% Tween-20 in blocking buffer) was added to each well and incubated with shaking for 1 Hour at room temperature. Following incubation with the secondary antibody, the wells were rinsed with wash buffer after which 25 μL of goat anti-rabbit SULFO TAG secondary detection antibody (required aspect of the MSD system) (diluted to 0.25 μg/mL in 0.05% Tween-20 in blocking buffer) was added to each well and incubated with shaking for 1 hour at room temperature. After rinsing three times with wash buffer, 150 μL of read buffer T with surfactant (MSD) were added to each empty well, and the plate was imaged on a SI 6000 imager (MSD) according to manufacturers' instructions provided for 96- or 384-well plates.

| Compound | IC50 [nM] | IC50 (nM) |
| --- | --- | --- |
| Oc1cc(-c2cn[nH]c2F)cc(F)c1-c1cnc(N2CCNC(C3CC3)C2)nn1 (stereo not shown) [Cpd 32, 2-[3-(3-cyclopropylpiperazin-1-yl)-1,2,4-triazin-6-yl]-3-fluoro-5-(5-fluoro-1H-pyrazol-4-yl)phenol] | 40.2 | – |
| CC(C)[C@H]1CN(c2ncc(-c3ccc(-c4cnn5cccnc45)cc3O)nn2)CCN1 [Cpd 243, 2-{3-[(3S)-3-(propan-2-yl)piperazin-1-yl]-1,2,4-triazin-6-yl}-5-(pyrazolo[1,5-a]pyrimidin-3-yl)phenol] | 218 | – |
| Oc1cc(-c2ncco2)ccc1-c1cnc(N2CCN[C@@H](C3CC3)C2)nn1 [Cpd 233, 2-{3-[(3S)-3-cyclopropylpiperazin-1-yl]-1,2,4-triazin-6-yl}-5-(1,3-oxazol-2-yl)phenol] | 17.7 | – |
| COc1cc(-c2ccc(-c3cnc(N4C[C@@H](C(C)C)N[C@@H](C)C4)nn3)c(O)c2)ncn1 [Cpd 227, 5-(6-methoxypyrimidin-4-yl)-2-{3-[(3S,5R)-3-methyl-5-(propan-2-yl)piperazin-1-yl]-1,2,4-triazin-6-yl}phenol] | 37.3 | – |
| CC(C)[C@H]1CN(c2ncc(-c3ccc(-c4nc5cccnc5s4)cc3O)nn2)CCN1 [Cpd 191, 2-{3-[(3S)-3-(propan-2-yl)piperazin-1-yl]-1,2,4-triazin-6-yl}-5-([1,3]thiazolo[5,4-b]pyridin-2-yl)phenol] | 621 | – |
| C[C@@H]1CN(c2ncc(-c3ccc(-n4nccn4)cc3O)nn2)C[C@H](C)N1 [Cpd 54, 2-{3-[(3R,5S)-3,5-dimethylpiperazin-1-yl]-1,2,4-triazin-6-yl}-5-(2H-1,2,3-triazol-2-yl)phenol] | 440 | – |
| Oc1cc(-c2cn[nH]c2)ccc1-c1cnc(N2CCN3CCOCC3C2)nn1 (stereo not drawn) [Cpd 64, 2-[3-(hexahydropyrazino[2,l-c][1,4]oxazin-8(1H)-yl)-1,2,4-triazin-6-yl]-5-(1H-pyrazol-4-yl)phenol] | – | inactive |
| C[C@@H]1CN(c2ncc(-c3ccc(-c4cn[nH]c4)cc3O)nn2)C[C@H](C(C)(C)C)N1 [Cpd 247, 2-{3-[(3S,5R)-3-tert-butyl-5-methylpiperazin-1-yl]-1,2,4-triazin-6-yl]-5-(1H-pyrazol-4-yl)phenol] | 201 | – |
| Cn1nc2cc(-c3cnc(-c4cnc(N5CCN[C@@H](C6CC6)C5)nn4)c(O)c3)cnc2n1 [Cpd 180, 2-{3-[(3S)-3-cyclopropylpiperazin-1-yl]-1,2,4-triazin-6-yl}-5-(2-methyl-2H-[1,2,3]triazolo[4,5-b]pyridin-6-yl)pyridin-3-ol] | 27.6 | – |
| Cc1cn2nc(-c3ccc(-c4cnc(N5C[C@@H](C)N(C)[C@@H](C)C5)nn4)c(O)c3)cc(C#N)c2n1 [Cpd 108, 6-(3-hydroxy-4-{3-[(3R,5S)-3,4,5-trimethylpiperazin-1-yl]-1,2,4-triazin-6-yl]phenyl)-2-methylimidazo[1,2-b]pyridazine-8-carbonitrile] | 19.8 | – |
| CC1([C@@H]2CN(c3ncc(-c4ccc(-c5cnn6c5CCC6)cc4O)nn3)CCN2)CC1 [Cpd 281, 5-(5,6-dihydro-4H-pyrrolo[1,2-b]pyrazol-3-yl)-2-{3-[(3R)-3-(1-methylcyclopropyl)piperazin-1-yl]-1,2,4-triazin-6-yl}phenol] | 198 | – |
| CC(C)(O)[C@H]1CN(c2ncc(-c3ccc(-c4c[nH]nc4F)cc3O)nn2)CCN1 [Cpd 25, 5-(3-fluoro-1H-pyrazol-4-yl)-2-{3-[(3R)-3-(2-hydroxypropan-2-yl)piperazin-1-yl]-1,2,4-triazin-6-yl]phenol] | 24.6 | – |
| CC(C)(C)[C@H]1CN(c2ncc(-c3ccc(-c4cn5ncnc5cn4)cc3O)nn2)CCN1 [Cpd 129, 2-{3-[(3S)-3-tert-butylpiperazin-1-yl]-1,2,4-triazin-6-yl}-5-([1,2,4]triazolo[1,5-a]pyrazin-6-yl)phenol] | 18.6 | – |
| Oc1cc(-c2c[nH]nc2F)ccc1-c1cnc(N2CCNC3(CC3)C2)nn1 [Cpd 57, 2-[3-(4,7-diazaspiro[2.5]octan-7-yl)-1,2,4-triazin-6-yl]-5-(3-fluoro-1H-pyrazol-4-yl)phenol] | 668 | – |
| Oc1cc(-c2cn[nH]c2)ccc1-c1cnc(N2CCN3CCCCC3C2)nn1 (stereo not shown) [Cpd 203, 2-[3-(octahydro-2H-pyrido[1,2-a]pyrazin-2-yl)-1,2,4-triazin-6-yl]-5-(1H-pyrazol-4-yl)phenol] | 42.5 | – |
| Cc1cnc2nc(-c3ccc(-c4cnc(N5C[C@@H](C)N[C@@H](C)C5)nn4)c(O)c3)sc2n1 [Cpd 119, 2-{3-[(3R,5S)-3,5-dimethylpiperazin-1-yl]-1,2,4-triazin-6-yl}-5-(6-methyl[1,3]thiazolo[4,5-b]pyrazin-2-yl)phenol] | – | inactive |
| Cc1nnn2cc(-c3ccc(-c4cnc(N5C[C@@H](C)N[C@@H](C)C5)nn4)c(O)c3)ccc12 [Cpd 206, 2-{3-[rac-(3R,5S)-3,5-dimethylpiperazin-1-yl]-1,2,4-triazin-6-yl}-5-(3-methyl[1,2,3]triazolo[1,5-a]pyridin-6-yl)phenol] | 33.7 | – |
| CC(C)[C@H]1CN(c2ncc(-c3ccc(-c4cn[nH]c4)cc3O)nn2)CCN1 [Cpd 20, 2-{3-[(3S)-3-(propan-2-yl)piperazin-1-yl]-1,2,4-triazin-6-yl}-5-(1H-pyrazol-4-yl)phenol] | 17.1 | – |
| CNc1ccc(-c2ccc(-c3cnc(N4CCN[C@@H](C5CC5)C4)nn3)c(O)c2)cc1 [Cpd 179, 4-{3-[(3S)-3-cyclopropylpiperazin-1-yl]-1,2,4-triazin-6-yl}-4‘-(methylamino)[1,1‘-biphenyl]-3-ol] | 113 | – |
| [2H]C([2H])([2H])n1cc(-c2ccc(-c3cnc(N4CCNC(CC)C4)nn3)c(O)c2)cn1 (stereo not shown) [Cpd 39, 2-[3-(3-ethylpiperazin-1-yl)-1,2,4-triazin-6-yl]-5-[1-(^2H3)methyl-1H-pyrazol-4-yl]phenol] | 63.7 | – |
| CCc1cc(-c2ccc(-c3cnc(N4CCN[C@@H](C(C)C)C4)nn3)c(O)c2)ncn1 [Cpd 150, 5-(6-ethylpyrimidin-4-yl)-2-{3-[(3S)-3-(propan-2-yl)piperazin-1-yl]-1,2,4-triazin-6-yl}phenol] | 139 | – |
| C[C@@H]1CN[C@@H](C)CN1c1ncc(-c2ccc(-c3cn[nH]c3)cc2O)nn1 (single isomer, unassigned) [Cpd 190, 2-{3-[(2R,5S)-2,5-dimethylpiperazin-1-yl]-1,2,4-triazin-6-yl}-5-(1H-pyrazol-4-yl)phenol or 2-{3-[(2S,5R)-2,5-dimethylpiperazin-1-yl]-1,2,4-triazin-6-yl}-5-(1H-pyrazol-4-yl)phenol] | 166 | – |

Continued, values first:

| IC50 [nM] | IC50 (nM) | Compound |
| --- | --- | --- |
| 3.9 | – | [2H]C([2H])([2H])Oc1cc(-c2ccc(-c3cnc(N4CCN[C@@H](C5CC5)C4)nn3)c(O)c2)ncn1 [Cpd 2, 2-{3-[(3S)-3-cyclopropylpiperazin-1-yl]-1,2,4-triazin-6-yl}-5-{6-[(^2H3)methyloxy]pyrimidin-4-yl}phenol] |
| 8.7 | – | CC[C@H]1CN(c2ncc(-c3ccc(-c4cc(OC)ncn4)cc3O)nn2)C[C@@H](C)N1 [Cpd 234, 2-{3-[(3S,5R)-3-ethyl-5-methylpiperazin-1-yl]-1,2,4-triazin-6-yl}-5-(6-methoxypyrimidin-4-yl)phenol] |
| 15.3 | – | Cn1cc2cc(-c3ccc(-c4cnc(N5CCN6CCC[C@@H]6C5)nn4)c(O)c3)cc(F)c2n1 [Cpd 105, 5-(7-fluoro-2-methyl-2H-indazol-5-yl)-2-{3-[(8aR)-hexahydropyrrolo[1,2-a]pyrazin-2(1H)-yl]-1,2,4-triazin-6-yl}phenol] |
| 4 | – | CC(C)C1CN(c2ncc(-c3ccc(-c4cc(F)c5nn(C)cc5c4)cc3O)nn2)CCN1 (stereo not shown) [Cpd 71, 5-(7-fluoro-2-methyl-2H-indazol-5-yl)-2-{3-[3-(propan-2-yl)piperazin-1-yl]-1,2,4-triazin-6-yl}phenol] |
| 10.8 | – | CC(C)(C)[C@H]1CN(c2ncc(-c3ccc(-c4ncsn4)cc3O)nn2)CCN1 [Cpd 258, 2-{3-[(3S)-3-tert-butylpiperazin-1-yl]-1,2,4-triazin-6-yl}-5-(1,2,4-thiadiazol-3-yl)phenol] |
| 6.7 | – | Oc1cc(-c2cn[nH]c2)ccc1-c1cnc(N2CCNC(C3(O)CC3)C2)nn1 (stereo not shown) [Cpd 6, 2-{3-[3-(1-hydroxycyclopropyl)piperazin-1-yl]-1,2,4-triazin-6-yl}-5-(1H-pyrazol-4-yl)phenol] |
| 16.5 | – | Cc1nc2cnc(-c3ccc(-c4cnc(N5C[C@@H](C)N[C@@H](C)C5)nn4)c(O)c3)cn2n1 [Cpd 106, 2-{3-[(3R,5S)-3,5-dimethylpiperazin-1-yl]-1,2,4-triazin-6-yl}-5-(2-methyl[1,2,4]triazolo[1,5-a]pyrazin-6-yl)phenol] |
| 4.1 | – | Cc1cn2cc(-c3ccc(-c4cnc(N5CCN(C)CC5)nn4)c(O)c3)cc(F)c2n1 [Cpd 73, 5-(8-fluoro-2-methylimidazo[1,2-a]pyridin-6-yl)-2-[3-(4-methylpiperazin-1-yl)-1,2,4-triazin-6-yl]phenol] |
| 5.9 | – | Cc1nc2nc(-c3ccc(-c4cnc(N5CCN[C@@H](C6CC6)C5)nn4)c(O)c3)nc(C)c2[nH]1 [Cpd 84, 2-{3-[(3S)-3-cyclopropylpiperazin-1-yl]-1,2,4-triazin-6-yl]-5-(6,8-dimethyl-7H-purin-2-yl)phenol] |
